Where two headings read alike, the source gives them in different places.
How the values were obtained:
CB2 receptor [1] = target: T1, CB2 receptor (Homo sapiens, UniProt P34972); experiment: biochemical; format: binding; design: expressed in transfected cells; host or cells: CHO cells (membrane preparation); details: for Ki: versus 0.1 nM [3H]CP55,940, CHO cell membranes, mean ± SEM of three to five experiments, read-out: Ki ± SEM Human CB2; for CB2 selectivity Ki CB1/KiCB2: Table S1, selectivity index from Ki values
human GPR55 = target: T2, human GPR55 (Homo sapiens, UniProt Q9Y2T6); experiment: β-Arrestin recruitment assay (PathHunter) at GPR55; format: cell-based; details: for IC50: antagonist mode; for Human GPR55 % activation: percent in brackets beside EC50 >10 µM; for Human GPR55 % inhibition: percent in brackets beside IC50
T2 construct: β-galactosidase enzyme fragment (PathHunter complementation tag)
Description: (§1) Recruitment of β-arrestin to the respective receptor was detected by using β-galactosidase enzyme fragment complementation technology (β-arrestin PathHunter™ assay, DiscoverX, Fremont, CA, USA) as previously described. Data were obtained from three independent experiments, performed in duplicates. Data were analyzed using Graph Pad Prism Version 4.02 (San Diego, CA, USA).

CB1 receptor [2] = target: T3, CB1 receptor (Homo sapiens, UniProt P21554); experiment: biochemical; format: binding; design: expressed in transfected cells; host or cells: CHO cells (membrane preparation); details: for CB1 selectivity Ki CB2/KiCB1: Table S1, selectivity index from Ki values; for Ki: versus 0.1 nM [3H]CP55,940, CHO cell membranes, mean ± SEM of three to five experiments, read-out: Ki ± SEM Human CB1
human GPR18 = target: T4, human GPR18 (Homo sapiens, UniProt Q14330); experiment: β-Arrestin recruitment assay (PathHunter) at GPR18; format: cell-based; details: for Human GPR18 % activation: percent in brackets beside EC50 >10 µM; for Human GPR18 % inhibition: percent in brackets beside IC50
T4 construct: β-galactosidase enzyme fragment (PathHunter complementation tag)
T4 sequence (Q14330 1-331): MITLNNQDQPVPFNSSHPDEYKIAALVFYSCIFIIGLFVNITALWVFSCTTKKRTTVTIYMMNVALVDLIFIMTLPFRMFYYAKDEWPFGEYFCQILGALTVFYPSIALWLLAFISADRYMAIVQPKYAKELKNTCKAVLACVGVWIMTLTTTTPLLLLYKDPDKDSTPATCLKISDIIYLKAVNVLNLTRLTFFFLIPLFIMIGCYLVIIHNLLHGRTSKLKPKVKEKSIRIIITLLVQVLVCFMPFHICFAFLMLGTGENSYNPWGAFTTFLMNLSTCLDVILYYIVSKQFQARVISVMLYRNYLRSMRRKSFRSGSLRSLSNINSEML
Description: as §1

CB1 receptor [3] = target: T3, CB1 receptor; experiment: cell-based; format: cell-based; design: expressed in transfected cells; host or cells: CHO cells; details: cAMP accumulation, forskolin 10 µM; test concentration 1 µM or 10 µM; normalized to CP55,940
Human CB1 = details: read-out: EC50 Human CB1 (literature, functional assay) (converted), cited from earlier work
Human CB2 = details: read-out: EC50 Human CB2 (literature, functional assay) (converted), cited from earlier work
CB2 receptor [4] = target: T1, CB2 receptor; experiment: cAMP accumulation assay in CHO cells expressing CB2; format: cell-based; design: expressed in transfected cells; host or cells: CHO cells; details: cAMP accumulation, forskolin 10 µM; test concentration 1 µM or 10 µM; normalized to CP55,940
[5] = Human GPR55 IC50, β-arrestin assay

T3 sequence (P21554 whole entry): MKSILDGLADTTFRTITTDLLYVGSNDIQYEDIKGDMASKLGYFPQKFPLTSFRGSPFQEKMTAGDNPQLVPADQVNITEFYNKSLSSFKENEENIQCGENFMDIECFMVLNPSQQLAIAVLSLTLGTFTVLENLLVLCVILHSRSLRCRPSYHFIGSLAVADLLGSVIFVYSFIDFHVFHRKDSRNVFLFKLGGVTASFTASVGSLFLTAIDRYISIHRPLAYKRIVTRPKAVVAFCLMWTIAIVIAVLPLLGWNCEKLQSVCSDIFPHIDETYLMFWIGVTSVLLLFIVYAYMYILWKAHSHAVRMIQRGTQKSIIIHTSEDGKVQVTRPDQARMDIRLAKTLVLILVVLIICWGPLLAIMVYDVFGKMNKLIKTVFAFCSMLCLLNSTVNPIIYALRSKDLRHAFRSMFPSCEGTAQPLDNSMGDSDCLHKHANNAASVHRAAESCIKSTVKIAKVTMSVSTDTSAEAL
T1 sequence (P34972 whole entry): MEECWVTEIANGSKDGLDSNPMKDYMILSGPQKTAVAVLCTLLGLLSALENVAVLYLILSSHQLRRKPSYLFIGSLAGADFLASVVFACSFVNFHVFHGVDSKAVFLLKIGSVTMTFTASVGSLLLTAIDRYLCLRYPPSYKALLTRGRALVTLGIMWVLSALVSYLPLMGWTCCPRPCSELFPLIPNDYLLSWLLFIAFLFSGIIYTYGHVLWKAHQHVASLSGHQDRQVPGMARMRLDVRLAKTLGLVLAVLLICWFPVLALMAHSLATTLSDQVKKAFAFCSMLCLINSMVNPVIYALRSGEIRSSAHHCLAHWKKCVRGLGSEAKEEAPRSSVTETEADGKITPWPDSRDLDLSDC
T2 sequence (Q9Y2T6 whole entry, the tested form may be a part): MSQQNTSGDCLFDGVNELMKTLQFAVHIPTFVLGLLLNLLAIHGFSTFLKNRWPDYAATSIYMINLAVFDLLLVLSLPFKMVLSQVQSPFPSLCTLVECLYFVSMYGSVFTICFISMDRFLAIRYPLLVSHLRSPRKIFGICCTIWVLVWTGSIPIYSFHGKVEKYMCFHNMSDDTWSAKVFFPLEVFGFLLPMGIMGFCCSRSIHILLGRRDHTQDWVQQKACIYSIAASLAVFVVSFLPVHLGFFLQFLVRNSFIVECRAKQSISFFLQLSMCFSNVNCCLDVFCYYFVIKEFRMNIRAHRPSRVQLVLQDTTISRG

O=C(Oc1cccc2ccccc12)c1cn(CCCCCF)c2ccccc12 [Compound 19, NM-2201]
Ki (CB2 receptor [1]): 0.732 ± 0.174 nM
EC50 (human GPR55): > 10000 nM
IC50 (human GPR55; [5]): > 10000 nM
Human GPR55 % activation (human GPR55; β-arrestin assay): 17%
Human GPR55 % inhibition (human GPR55; β-arrestin assay): 23%
CB1 selectivity Ki CB2/KiCB1 (CB1 receptor [2]): 2.2
Ki (CB1 receptor [2]): 0.332 ± 0.107 nM
EC50 (human GPR18): > 10000 nM
IC50 (human GPR18): > 10000 nM
Human GPR18 % activation (human GPR18; β-arrestin assay): −8%
Human GPR18 % inhibition (human GPR18; β-arrestin assay): 32%
efficacy at CB1 receptor (in words) (CB1 receptor [3]): higher efficacy than the full agonist CP55,940

CCCCCn1nc(C(=O)Oc2cccc3ccccc23)c2ccccc21 [Compound 22, SDB-005]
CB2 selectivity Ki CB1/KiCB2 (CB2 receptor [1]): 1.4
Ki (CB2 receptor [1]): 2.61 ± 1.07 nM
EC50 (human GPR55): > 10000 nM
IC50 (human GPR55; [5]): > 10000 nM
Human GPR55 % activation (human GPR55; β-arrestin assay): 8%
Human GPR55 % inhibition (human GPR55; β-arrestin assay): 23%
Ki (CB1 receptor [2]): 3.59 ± 0.89 nM
EC50 (Human CB1; ref Banister et al. [28]): 116 nM
EC50 (human GPR18): > 10000 nM
IC50 (human GPR18): > 10000 nM
Human GPR18 % activation (human GPR18; β-arrestin assay): 15%
Human GPR18 % inhibition (human GPR18; β-arrestin assay): 24%
EC50 (Human CB2; ref Banister et al. [28]): 140 nM

O=C(Oc1cccc2ccccc12)c1nn(CCCCCF)c2ccccc12 [Compound 23, 5F-SDB-005]
Ki (CB2 receptor [1]): 3.41 ± 1.34 nM
EC50 (human GPR55): > 10000 nM
IC50 (human GPR55; [5]): > 10000 nM
Human GPR55 % activation (human GPR55; β-arrestin assay): 21%
Human GPR55 % inhibition (human GPR55; β-arrestin assay): 47%
CB1 selectivity Ki CB2/KiCB1 (CB1 receptor [2]): 1.3
Ki (CB1 receptor [2]): 2.58 ± 1.09 nM
EC50 (Human CB1; ref Banister et al. [28]): 148 nM
EC50 (human GPR18): > 10000 nM
IC50 (human GPR18): > 10000 nM
Human GPR18 % activation (human GPR18; β-arrestin assay): 21%
Human GPR18 % inhibition (human GPR18; β-arrestin assay): 24%
EC50 (Human CB2; ref Banister et al. [28]): 136 nM

O=C(Oc1cccc2cccnc12)c1cn(CC2CCCCC2)c2ccccc12 [Compound 27, BB-22]
Ki (CB2 receptor [1]): 0.338 ± 0.045 nM
EC50 (human GPR55): > 10000 nM
IC50 (human GPR55; [5]): > 10000 nM
Human GPR55 % activation (human GPR55; β-arrestin assay): 9%
Human GPR55 % inhibition (human GPR55; β-arrestin assay): 34%
CB1 selectivity Ki CB2/KiCB1 (CB1 receptor [2]): 1.6
Ki (CB1 receptor [2]): 0.217 ± 0.056 nM
EC50 (human GPR18): > 10000 nM
IC50 (human GPR18): > 10000 nM
Human GPR18 % activation (human GPR18; β-arrestin assay): 2%
Human GPR18 % inhibition (human GPR18; β-arrestin assay): 18%
efficacy at CB1 receptor (in words) (CB1 receptor [3]): higher efficacy than the full agonist CP55,940

CCc1ccc(C(=O)c2cn(CCCCCF)c3ccccc23)c2ccccc12 [Compound 31, EAM-2201]
CB2 selectivity Ki CB1/KiCB2 (CB2 receptor [1]): 1.0
Ki (CB2 receptor [1]): 0.371 ± 0.052 nM
EC50 (human GPR55): > 10000 nM
IC50 (human GPR55; [5]): 1860 ± 160 nM
Human GPR55 % activation (human GPR55; β-arrestin assay): −24%
CB1 selectivity Ki CB2/KiCB1 (CB1 receptor [2]): 1.0
Ki (CB1 receptor [2]): 0.38 ± 0.111 nM
EC50 (human GPR18): > 10000 nM
IC50 (human GPR18): > 10000 nM
Human GPR18 % activation (human GPR18; β-arrestin assay): 14%
Human GPR18 % inhibition (human GPR18; β-arrestin assay): 4%
efficacy at CB1 receptor (in words) (CB1 receptor [3]): higher efficacy than the full agonist CP55,940

CCCCCn1cc(C(=O)C23CC4CC(CC(C4)C2)C3)c2ccccc21 [Compound 35, AB001]
CB2 selectivity Ki CB1/KiCB2 (CB2 receptor [1]): 19.2
Ki (CB2 receptor [1]): 1.72 ± 0.15 nM
EC50 (human GPR55): > 10000 nM
IC50 (human GPR55; [5]): ~10000 nM
Human GPR55 % activation (human GPR55; β-arrestin assay): −14%
Human GPR55 % inhibition (human GPR55; β-arrestin assay): 56%
Ki (CB1 receptor [2]): 33 ± 7.42 nM
EC50 (Human CB1; ref Banister et al. [46]): 35 nM
EC50 (human GPR18): > 10000 nM
IC50 (human GPR18): ~10000 nM
Human GPR18 % activation (human GPR18; β-arrestin assay): −12%
Human GPR18 % inhibition (human GPR18; β-arrestin assay): 62%
EC50 (Human CB2; ref Banister et al. [46]): 45 nM

CC1(C)C(C(=O)c2cn(CCCCCF)c3ccccc23)C1(C)C [Compound 38, XLR-11]
CB2 selectivity Ki CB1/KiCB2 (CB2 receptor [1]): 48.4
Ki (CB2 receptor [1]): 0.608 ± 0.151 nM
Ki (CB1 receptor [2]): 29.4 ± 11 nM
EC50 (Human CB1; ref Banister et al. [28]): 98 nM
EC50 (Human CB2; ref Banister et al. [28]): 83 nM

CN1CCCCC(Cn2cc(C(=O)C3C(C)(C)C3(C)C)c3ccccc32)C1 (stereo not drawn) [Compound 44, AB005-azepane-isomer]
CB2 selectivity Ki CB1/KiCB2 (CB2 receptor [1]): 47.2
Ki (CB2 receptor [1]): 212 ± 55 nM
EC50 (human GPR55; read-out: Human GPR55 EC50, β-arrestin assay, agonist mode): > 10000 nM
IC50 (human GPR55; read-out: Human GPR55 IC50, β-arrestin assay): > 10000 nM
Human GPR55 % activation (human GPR55; β-arrestin assay): 21%
Human GPR55 % inhibition (human GPR55; β-arrestin assay): 18%
affinity for the CB1 receptor (in words) (CB1 receptor [2]; at concentrations up to 10 µM): no affinity
inhibition of radioligand binding at human CB1 (percent in brackets) (CB1 receptor [2]; printed in brackets beside Ki ~/>10,000 nM, concentration not given): 13%
Ki (CB1 receptor [2]): > 10000 nM
efficacy at CB2 receptor (in words) (CB2 receptor [4]): did not activate
EC50 (human GPR18; read-out: Human GPR18 EC50, β-arrestin assay, agonist mode): > 10000 nM
IC50 (human GPR18; read-out: Human GPR18 IC50, β-arrestin assay, antagonist mode): > 10000 nM
Human GPR18 % activation (human GPR18; β-arrestin assay): 11%
Human GPR18 % inhibition (human GPR18; β-arrestin assay): −6%
efficacy at CB1 receptor (in words) (CB1 receptor [3]): did not activate

From publication PMC4929166, “Pharmacological evaluation of synthetic cannabinoids identified as constituents of spice” (Forensic Toxicology, 2016)
